ChEMBL document CHEMBL1828558, “Discovery of (+)-N-(3-aminopropyl)-N-[1-(5-benzyl-3-methyl-4-oxo-[1,2]thiazolo[5,4-d]pyrimidin-6-yl)-2-methylpropyl]-4-methylbenzamide (AZD4877), a kinesin spindle protein inhibitor and potential anticancer agent” (J Med Chem, 2011)

Key:
Cytochrome P450 2C9 = Cytochrome P450 2C9 (Homo sapiens, UniProt P11712); test: Inhibition of human recombinant CYP2C9; assay type: ADME
Liver = test: Intrinsic clearance in Wistar rat hepatocytes at 2 uM; assay type: ADME, cell-based, Hepatocyte
[1] = Initial plasma concentration in Wistar rat at 6 mg/kg, iv administered as a single bolus dose; assay type: ADME, organism-based; parameters: dose 6 mg/kg, route intravenous
Cytochrome P450 2C19 = Cytochrome P450 2C19 (Homo sapiens, UniProt P33261); test: Inhibition of human recombinant CYP2C19; assay type: ADME
Sequence of Cytochrome P450 2C19 (P33261 whole entry): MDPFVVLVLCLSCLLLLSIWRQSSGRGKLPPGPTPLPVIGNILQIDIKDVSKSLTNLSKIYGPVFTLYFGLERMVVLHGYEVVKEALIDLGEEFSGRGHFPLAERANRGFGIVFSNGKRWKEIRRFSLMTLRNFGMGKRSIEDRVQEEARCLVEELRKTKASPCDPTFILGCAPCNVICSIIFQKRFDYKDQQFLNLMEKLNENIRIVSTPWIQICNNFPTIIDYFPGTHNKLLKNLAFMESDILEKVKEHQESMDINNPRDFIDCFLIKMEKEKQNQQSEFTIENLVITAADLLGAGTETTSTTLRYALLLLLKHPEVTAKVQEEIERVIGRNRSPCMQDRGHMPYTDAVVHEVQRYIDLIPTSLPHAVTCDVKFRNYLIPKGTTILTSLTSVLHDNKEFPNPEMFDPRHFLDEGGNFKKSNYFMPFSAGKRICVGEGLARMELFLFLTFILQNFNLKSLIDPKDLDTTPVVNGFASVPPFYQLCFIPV

[2] = Half-life in rat at 1 and 5 mg/kg, iv administered as bolus dose; assay type: ADME, organism-based; parameters: dose 5 mg/kg, route intravenous; settings: in vivo
Cytochrome P450 3A4 = Cytochrome P450 3A4 (Homo sapiens, UniProt P08684); test: Inhibition of human recombinant CYP3A4; assay type: ADME
Sequence of Cytochrome P450 3A4 (P08684 whole entry): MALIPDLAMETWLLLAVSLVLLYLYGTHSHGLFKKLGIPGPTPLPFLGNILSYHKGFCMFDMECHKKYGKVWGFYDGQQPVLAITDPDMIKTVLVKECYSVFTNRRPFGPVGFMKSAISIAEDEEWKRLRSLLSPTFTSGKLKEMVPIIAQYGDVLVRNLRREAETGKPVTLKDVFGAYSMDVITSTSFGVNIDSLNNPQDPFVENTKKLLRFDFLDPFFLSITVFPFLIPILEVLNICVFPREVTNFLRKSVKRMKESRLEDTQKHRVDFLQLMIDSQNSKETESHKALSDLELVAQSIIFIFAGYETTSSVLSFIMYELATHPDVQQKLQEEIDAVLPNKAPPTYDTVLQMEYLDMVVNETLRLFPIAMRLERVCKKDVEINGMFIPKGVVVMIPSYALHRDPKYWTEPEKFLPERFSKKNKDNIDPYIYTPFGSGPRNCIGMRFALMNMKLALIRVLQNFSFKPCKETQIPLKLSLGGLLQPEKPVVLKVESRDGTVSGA

[3] = Binding affinity to sodium channel in guinea pig atria by radioligand displacement assay; parameters: species or system Cavia porcellus
[4] = Volume of distribution at steady state in Wistar rat at 6 mg/kg, iv administered as a single bolus dose; assay type: ADME, organism-based; parameters: dose 6 mg/kg, route intravenous; settings: in vivo, read-out: Vdss
[5] = Plasma protein binding in human; assay type: ADME, cell-free; settings: read-out: PPB (converted)
[6] = Clearance in Wistar rat; assay type: ADME, organism-based; settings: in vivo
Rattus norvegicus [7] = test: Hepatic blood flow in rat at 1 and 5 mg/kg, iv administered as bolus dose; assay type: ADME, organism-based, Liver; parameters: dose 5 mg/kg, route intravenous; settings: in vivo
Rattus norvegicus [8] = organism: Rattus norvegicus; test: Hepatic blood flow in Wistar rat; assay type: ADME, organism-based, Liver
[9] = biological target: T1, Kinesin-like protein KIF11 (Homo sapiens, UniProt P52732); test: Inhibition of human recombinant C-terminal His6-tagged KSP ATPase activity after 1 hr by malachite green assay
T1 sequence (P52732 whole entry): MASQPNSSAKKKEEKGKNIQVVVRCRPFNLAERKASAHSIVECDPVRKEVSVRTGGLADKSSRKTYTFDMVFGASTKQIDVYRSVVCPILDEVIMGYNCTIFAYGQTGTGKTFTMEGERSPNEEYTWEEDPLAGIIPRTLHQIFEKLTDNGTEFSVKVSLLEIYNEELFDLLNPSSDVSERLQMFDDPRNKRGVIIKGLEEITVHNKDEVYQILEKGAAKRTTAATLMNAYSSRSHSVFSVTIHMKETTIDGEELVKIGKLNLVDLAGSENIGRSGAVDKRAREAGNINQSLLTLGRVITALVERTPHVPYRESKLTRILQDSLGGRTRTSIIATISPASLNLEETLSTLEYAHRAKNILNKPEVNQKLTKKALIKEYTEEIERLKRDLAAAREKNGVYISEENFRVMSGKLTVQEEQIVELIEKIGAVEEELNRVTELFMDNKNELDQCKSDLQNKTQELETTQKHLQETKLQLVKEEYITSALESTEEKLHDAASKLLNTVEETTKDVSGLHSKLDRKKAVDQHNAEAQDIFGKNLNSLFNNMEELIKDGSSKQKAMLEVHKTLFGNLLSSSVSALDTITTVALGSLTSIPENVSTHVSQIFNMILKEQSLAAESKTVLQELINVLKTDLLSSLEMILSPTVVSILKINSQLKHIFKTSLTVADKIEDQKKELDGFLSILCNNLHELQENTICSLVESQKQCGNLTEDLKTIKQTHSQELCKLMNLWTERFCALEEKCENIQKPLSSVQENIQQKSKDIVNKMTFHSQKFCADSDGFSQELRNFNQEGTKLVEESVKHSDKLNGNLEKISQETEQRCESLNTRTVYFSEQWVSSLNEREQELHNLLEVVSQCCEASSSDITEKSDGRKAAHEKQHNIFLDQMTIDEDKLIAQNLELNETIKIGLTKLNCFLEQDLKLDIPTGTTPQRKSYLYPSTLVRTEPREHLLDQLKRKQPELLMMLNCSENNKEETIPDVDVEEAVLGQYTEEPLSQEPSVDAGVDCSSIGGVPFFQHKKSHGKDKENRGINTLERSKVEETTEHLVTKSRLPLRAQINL

[10] = Clearance in Wistar rat at 6 mg/kg, iv administered as a single bolus dose; assay type: ADME, organism-based; parameters: dose 6 mg/kg, route intravenous; settings: in vivo
[11] = Binding affinity to L-type calcium channel in guinea pig ileum by radioligand displacement assay; assay type: tissue-based, Cavia porcellus
[12] = Drug level in fiber in Hans Wistar rat hollow fiber model implanted with human COLO205 cells at 6 mg/kg, iv after 24 hrs; assay type: ADME, organism-based, COLO 205; parameters: dose 6 mg/kg, route intravenous; settings: read-out: Drug uptake
Liver microsomes = test: Intrinsic clearance in Wistar rat liver microsomes at 2 uM; assay type: ADME, Microsome
[13] = Clearance in nude mouse; assay type: ADME, organism-based; settings: in vivo
Cytochrome P450 2D6 = Cytochrome P450 2D6 (Homo sapiens, UniProt P10635); test: Inhibition of human recombinant CYP2D6; assay type: ADME
Sequence of Cytochrome P450 2D6 (P10635 whole entry): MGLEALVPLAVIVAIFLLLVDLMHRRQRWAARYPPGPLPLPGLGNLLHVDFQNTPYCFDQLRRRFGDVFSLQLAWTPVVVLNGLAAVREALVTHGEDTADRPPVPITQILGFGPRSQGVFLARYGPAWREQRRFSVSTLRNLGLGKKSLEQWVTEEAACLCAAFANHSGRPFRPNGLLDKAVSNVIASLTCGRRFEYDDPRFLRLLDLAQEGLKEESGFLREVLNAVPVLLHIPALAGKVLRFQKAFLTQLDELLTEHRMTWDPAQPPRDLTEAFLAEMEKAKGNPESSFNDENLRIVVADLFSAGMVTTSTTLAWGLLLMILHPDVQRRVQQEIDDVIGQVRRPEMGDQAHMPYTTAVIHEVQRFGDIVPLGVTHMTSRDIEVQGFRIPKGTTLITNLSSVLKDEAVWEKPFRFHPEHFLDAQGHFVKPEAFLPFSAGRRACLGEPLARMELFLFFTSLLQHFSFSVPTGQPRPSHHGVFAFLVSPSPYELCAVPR

COLO 205 = test: Anticancer activity against human COLO205 cells after 72 hrs by MTS/PMS assay; assay type: functional, cell-based; settings: colo 205
[14] = Half-life in Wistar rat at 6 mg/kg, iv administered as a single bolus dose; assay type: ADME, organism-based; parameters: dose 6 mg/kg, route intravenous; settings: in vivo
[15] = Plasma concentration in Hans Wistar rat hollow fiber model implanted with human COLO205 cells at 6 mg/kg, iv after 24 hrs; assay type: ADME, organism-based, COLO 205; parameters: dose 6 mg/kg, route intravenous
Cytochrome P450 1A2 = biological target: T2, Cytochrome P450 1A2 (Homo sapiens, UniProt P05177); test: Inhibition of human recombinant CYP1A2; assay type: ADME
T2 sequence (P05177 whole entry): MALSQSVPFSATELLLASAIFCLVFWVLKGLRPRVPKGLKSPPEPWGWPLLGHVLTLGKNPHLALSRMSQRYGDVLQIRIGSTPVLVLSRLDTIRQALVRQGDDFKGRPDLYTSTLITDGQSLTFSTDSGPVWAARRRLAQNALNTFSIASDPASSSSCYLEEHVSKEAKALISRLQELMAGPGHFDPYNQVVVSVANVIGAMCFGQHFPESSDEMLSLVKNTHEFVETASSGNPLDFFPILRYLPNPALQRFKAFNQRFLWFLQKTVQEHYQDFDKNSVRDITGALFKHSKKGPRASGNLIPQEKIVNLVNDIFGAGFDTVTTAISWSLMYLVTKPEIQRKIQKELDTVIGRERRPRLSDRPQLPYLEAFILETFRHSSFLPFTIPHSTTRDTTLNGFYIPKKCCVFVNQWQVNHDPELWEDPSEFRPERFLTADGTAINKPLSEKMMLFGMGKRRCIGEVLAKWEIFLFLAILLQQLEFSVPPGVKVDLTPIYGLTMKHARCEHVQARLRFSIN

[16] = AUC (infinity) in Wistar rat at 6 mg/kg, iv administered as a single bolus dose; assay type: ADME, organism-based; parameters: time infinity, dose 6 mg/kg, route intravenous; settings: plasma
[17] = Volume of distribution in rat at 1 and 5 mg/kg, iv administered as bolus dose; assay type: ADME, organism-based; parameters: dose 5 mg/kg, route intravenous; settings: in vivo

Sequence of Cytochrome P450 2C9 (P11712 whole entry): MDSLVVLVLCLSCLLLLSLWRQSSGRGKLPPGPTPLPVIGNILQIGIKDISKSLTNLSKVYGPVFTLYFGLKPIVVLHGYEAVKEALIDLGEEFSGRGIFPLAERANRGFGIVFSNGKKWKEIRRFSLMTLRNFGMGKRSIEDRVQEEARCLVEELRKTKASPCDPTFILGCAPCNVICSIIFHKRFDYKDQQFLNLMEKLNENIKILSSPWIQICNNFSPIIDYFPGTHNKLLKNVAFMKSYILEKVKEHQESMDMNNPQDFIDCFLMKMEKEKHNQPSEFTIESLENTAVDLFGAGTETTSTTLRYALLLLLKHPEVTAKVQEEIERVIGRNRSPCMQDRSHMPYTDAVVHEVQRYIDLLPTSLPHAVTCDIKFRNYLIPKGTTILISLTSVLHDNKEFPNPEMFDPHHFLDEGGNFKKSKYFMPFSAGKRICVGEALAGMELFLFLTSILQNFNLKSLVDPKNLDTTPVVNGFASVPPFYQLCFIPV

An IC50 (Cytochrome P450 2C9) of over 10 µM, a CL (Liver) of 4 µL/min and a C0 [1] of 1080 ng/mL were found for `Cc1ccc(C(=O)N(CCCN)C(c2nc3snc(C)c3c(=O)n2Cc2ccccc2)C(C)C)cc1` (single isomer, unassigned; (+)) [AZD-4877] in this work. For the same compound, the IC50 (Cytochrome P450 2C19) was over 10 µM, the half-life [2] was 3.5 h and the IC50 (Cytochrome P450 3A4) was over 10 µM. It also gave an IC50 [3] of over 30 µM, a Vd [4] of 10 L/kg and a fraction unbound [5] of 0.046. The clearance [6] was 36 mL/min/kg, the QH (Rattus norvegicus [7]) was 50% and the QH (Rattus norvegicus [8]) was 52%. It also gave an IC50 [9] of 0.002 µM, a clearance [10] of 36 mL/min/kg and an IC50 [11] of 2.7 µM. It also gave a concentration at 24 h [12] of 30.7 ng/mL, a clearance (Liver microsomes) of under 10 µL/min/mg and a clearance [13] of 17 mL/min/kg. It also gave an IC50 (Cytochrome P450 2D6) of over 10 µM, an IC50 (COLO 205) of 0.003 µM and a half-life [14] of 3.5 h. It also gave a concentration at 24 h [15] of 2.8 ng/mL, an IC50 (Cytochrome P450 1A2) of over 10 µM and an AUC(0-inf) [16] of 2840 ng·h/mL. For the same compound, the Vd [17] was 10 L/kg.
